Key:
CAR (NR1I3) [1] = target: T1, CAR (NR1I3) (Homo sapiens, UniProt Q14994); assay: NVS_NR_hCAR_Agonist: Human CAR CITCO Agonist (cell-free HTS); assay type: biochemical; conditions: scale not given, looks like -log10 of molar active concentration, 0 = no activity
T1 sequence (Q14994 1-352): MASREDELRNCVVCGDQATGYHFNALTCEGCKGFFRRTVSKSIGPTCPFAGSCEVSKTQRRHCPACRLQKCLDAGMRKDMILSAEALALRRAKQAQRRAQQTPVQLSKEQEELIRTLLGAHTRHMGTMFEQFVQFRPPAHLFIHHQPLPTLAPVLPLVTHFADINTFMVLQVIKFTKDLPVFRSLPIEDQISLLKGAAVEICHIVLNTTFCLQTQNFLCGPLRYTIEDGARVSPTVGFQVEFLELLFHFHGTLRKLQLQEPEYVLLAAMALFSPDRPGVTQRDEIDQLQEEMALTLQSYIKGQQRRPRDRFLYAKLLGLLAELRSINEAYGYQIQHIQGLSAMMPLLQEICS
Source text: (§1) These are a collection of biochemical assays measuring binding constants and enzyme inhibition values. Chemicals were initially screened at a single concentration in duplicate wells at a concentration of 10 [drawing 63] M for cytochrome P-450 assays and 25 [drawing 64] M for all others. […] These assays were run by Caliper Life Sciences (Hanover, MD) under contract to EPA. Short assay descriptions are available at: http://www.caliperls.com/products/contract-research/in-vitro/.
(§2) Cell-free HTS Assays: A collection of biochemical assays measuring binding constants and enzyme inhibition values. […] These assays were run by Caliper Life Sciences (Hanover, MD) under contract to EPA. Short assay descriptions are available at http://www.caliperls.com/products/contract-research/in-vitro/. Values for all endpoints were imported into GeneData Screener (Basel, Switzerland) and normalised to solvent controls from the same plate as the tested compounds and expressed as percent of neutral control. Concentration-response curves were fit in GeneData Screener (Basel, Switzerland) Condeseo module using the Hill equation and AC50 values were determined. […] Detailed description of the methods, data and analysis methods for this dataset are described in a separate publication.

CAR (NR1I3) [2] = target: T1, CAR (NR1I3); assay: ATG_CAR_TRANS: Factorial reporter gene assay (HepG2); assay type: cell-based; set-up: endogenous in cells; host or cells: HepG2; conditions: HepG2; scale not given, looks like -log10 of molar active concentration; 0 = no activity
Protocol: (§3) A multiple reporter transcription unit (MRTU) library consisting of 48 transcription factor binding sites was transfected into the HepG2 human liver hepatoma cell line. In addition to the cis-acting reporter genes (CIS), a modification of the approach was used to generate a trans-system (TRANS) with a mammalian one-hybrid assay consisting of an additional 25 MRTU library reporting the activity of nuclear receptor super-family members. […] These assays were performed by Attagene Inc. (Morrisville NC) under contract to EPA.
(§4) In addition to the cis-acting reporter genes (CIS), a modification of the approach was used to generate a trans-system (TRANS) with a mammalian one-hybrid assay consisting of an additional 25 MRTU library reporting the activity of nuclear receptor super-family members. […] Chemicals were then tested in the CIS and TRANS assays at seven concentrations starting at the MTC and followed by three-fold serial dilutions. These assays were performed by Attagene Inc. (Morrisville NC) under contract to EPA. Detailed description of the methods, data and analysis methods for this dataset will be presented in a separate publication.

[3] = target: T2, PPARD (peroxisome proliferator-activated receptor delta) (Homo sapiens, UniProt Q03181); assay: ATG_PPARd_TRANS: Factorial reporter gene assay (HepG2); assay type: cell-based; set-up: scale not given here; conditions: scale not given, looks like -log10 of molar active concentration, 0 = no activity
T2 construct: expressed in transfected cells; host or cells: HepG2
T2 sequence (Q03181 1-441): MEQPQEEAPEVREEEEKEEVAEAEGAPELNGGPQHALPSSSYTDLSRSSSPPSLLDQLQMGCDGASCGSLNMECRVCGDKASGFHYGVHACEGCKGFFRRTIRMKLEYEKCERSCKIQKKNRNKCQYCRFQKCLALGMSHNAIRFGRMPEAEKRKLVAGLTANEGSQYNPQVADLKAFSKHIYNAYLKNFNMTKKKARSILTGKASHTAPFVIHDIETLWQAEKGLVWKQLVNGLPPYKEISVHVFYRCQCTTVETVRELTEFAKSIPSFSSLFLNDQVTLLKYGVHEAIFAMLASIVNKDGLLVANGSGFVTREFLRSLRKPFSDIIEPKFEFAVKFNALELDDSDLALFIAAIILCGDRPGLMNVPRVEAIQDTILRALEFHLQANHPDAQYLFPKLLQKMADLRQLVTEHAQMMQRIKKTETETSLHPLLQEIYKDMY
Protocol: as §3, §4

FXR (NR1H4) [4] = target: T3, FXR (NR1H4) (Homo sapiens, UniProt Q96RI1); assay: ATG_FXR_TRANS: Factorial reporter gene assay (HepG2); assay type: cell-based; set-up: expressed in transfected cells; host or cells: HepG2; scale not given here; conditions: scale not given, looks like -log10 of molar active concentration, 0 = no activity
T3 sequence (Q96RI1 1-486): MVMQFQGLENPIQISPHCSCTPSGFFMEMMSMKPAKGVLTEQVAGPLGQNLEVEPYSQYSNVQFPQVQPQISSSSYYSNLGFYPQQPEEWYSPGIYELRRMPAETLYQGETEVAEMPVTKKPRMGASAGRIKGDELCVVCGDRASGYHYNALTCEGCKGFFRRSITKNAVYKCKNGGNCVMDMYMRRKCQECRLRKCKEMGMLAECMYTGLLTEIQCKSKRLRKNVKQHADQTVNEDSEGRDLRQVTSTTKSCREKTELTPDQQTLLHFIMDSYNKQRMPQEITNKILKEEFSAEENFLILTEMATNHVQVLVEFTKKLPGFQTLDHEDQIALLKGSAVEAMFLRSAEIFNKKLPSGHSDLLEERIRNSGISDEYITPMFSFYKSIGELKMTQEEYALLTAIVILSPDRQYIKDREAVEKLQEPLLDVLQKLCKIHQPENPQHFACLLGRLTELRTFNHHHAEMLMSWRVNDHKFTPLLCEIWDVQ
Protocol: as §3, §4

FXR (NR1H4) [5] = target: T3, FXR (NR1H4); assay: NVS_NR_hFXR: Human FXR CDCA (cell-free HTS); assay type: binding; conditions: scale not given, looks like -log10 of molar active concentration, 0 = no activity
Source text: as §1, §2

[6] = target: T4, ESRRA (estrogen-related receptor alpha) (Homo sapiens, UniProt P11474); assay: ATG_ERRa_TRANS: Factorial reporter gene assay (HepG2); assay type: cell-based; conditions: scale not given, looks like -log10 of molar active concentration, 0 = no activity
T4 construct: expressed in transfected cells; host or cells: HepG2
T4 sequence (P11474 1-423): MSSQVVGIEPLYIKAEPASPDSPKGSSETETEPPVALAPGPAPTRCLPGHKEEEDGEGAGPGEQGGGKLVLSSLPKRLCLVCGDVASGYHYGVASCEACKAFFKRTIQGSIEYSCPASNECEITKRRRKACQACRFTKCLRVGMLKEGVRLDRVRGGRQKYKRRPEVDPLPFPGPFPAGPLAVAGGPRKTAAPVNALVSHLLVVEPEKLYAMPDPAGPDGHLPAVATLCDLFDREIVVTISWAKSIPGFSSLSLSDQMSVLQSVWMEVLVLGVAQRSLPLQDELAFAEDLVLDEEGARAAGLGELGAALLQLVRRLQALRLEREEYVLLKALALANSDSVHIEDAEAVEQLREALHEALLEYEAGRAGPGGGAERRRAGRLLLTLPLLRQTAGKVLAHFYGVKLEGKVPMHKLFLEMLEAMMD
Protocol: as §3, §4

Nc1cnn(-c2ccccc2)c(=O)c1Cl [r56]
0: NVS_NR_hCAR_Agonist (CAR (NR1I3) [1]) | ATG_CAR_TRANS (CAR (NR1I3) [2]) | ATG_PPARd_TRANS [3]

CCC(C)n1c(=O)[nH]c(C)c(Br)c1=O (centres unmarked) [r43]
0: NVS_NR_hCAR_Agonist (CAR (NR1I3) [1]) | ATG_CAR_TRANS (CAR (NR1I3) [2]) | ATG_FXR_TRANS (FXR (NR1H4) [4]) | NVS_NR_hFXR (FXR (NR1H4) [5]) | ATG_ERRa_TRANS [6]

CC(C)OC(=O)Nc1cccc(Cl)c1 [r59]
0: ATG_FXR_TRANS (FXR (NR1H4) [4]) | ATG_PPARd_TRANS [3] | NVS_NR_hFXR (FXR (NR1H4) [5]) | ATG_ERRa_TRANS [6]

N#Cc1cc(Br)c(O)c(Br)c1 [r44]
0: NVS_NR_hCAR_Agonist (CAR (NR1I3) [1]) | ATG_CAR_TRANS (CAR (NR1I3) [2]) | ATG_FXR_TRANS (FXR (NR1H4) [4]) | ATG_PPARd_TRANS [3] | NVS_NR_hFXR (FXR (NR1H4) [5]) | ATG_ERRa_TRANS [6]

CCCCOCN(C(=O)CCl)c1c(CC)cccc1CC [r46]
0: NVS_NR_hCAR_Agonist (CAR (NR1I3) [1]) | ATG_CAR_TRANS (CAR (NR1I3) [2]) | ATG_FXR_TRANS (FXR (NR1H4) [4]) | ATG_PPARd_TRANS [3] | NVS_NR_hFXR (FXR (NR1H4) [5]) | ATG_ERRa_TRANS [6]

Cc1ccccc1CO[C@@H]1C[C@@]2(C(C)C)CC[C@]1(C)O2 [r64]
0: NVS_NR_hCAR_Agonist (CAR (NR1I3) [1]) | ATG_CAR_TRANS (CAR (NR1I3) [2]) | ATG_PPARd_TRANS [3]

COc1nc(C)nc(NC(=O)NS(=O)(=O)c2ccccc2Cl)n1 [r62]
0: NVS_NR_hCAR_Agonist (CAR (NR1I3) [1]) | ATG_CAR_TRANS (CAR (NR1I3) [2]) | ATG_ERRa_TRANS [6]

CC(C)(c1ccc(O)cc1)c1ccc(O)cc1 [r40]
0: NVS_NR_hCAR_Agonist (CAR (NR1I3) [1]) | ATG_CAR_TRANS (CAR (NR1I3) [2]) | ATG_PPARd_TRANS [3] | ATG_ERRa_TRANS [6]

CC(C)N1C(=O)c2ccccc2NS1(=O)=O [r37]
0: ATG_PPARd_TRANS [3] | ATG_ERRa_TRANS [6]

CNC(=O)Oc1cccc2ccccc12 [r52]
0: NVS_NR_hCAR_Agonist (CAR (NR1I3) [1]) | ATG_CAR_TRANS (CAR (NR1I3) [2]) | ATG_FXR_TRANS (FXR (NR1H4) [4]) | ATG_PPARd_TRANS [3] | NVS_NR_hFXR (FXR (NR1H4) [5])

OB(O)O [r41]
0: NVS_NR_hCAR_Agonist (CAR (NR1I3) [1]) | ATG_CAR_TRANS (CAR (NR1I3) [2]) | ATG_FXR_TRANS (FXR (NR1H4) [4]) | ATG_PPARd_TRANS [3] | NVS_NR_hFXR (FXR (NR1H4) [5]) | ATG_ERRa_TRANS [6]

CCOC(=O)C(Cl)Cc1cc(-n2nc(C)n(C(F)F)c2=O)c(F)cc1Cl (centres unmarked) [r54]
0: NVS_NR_hCAR_Agonist (CAR (NR1I3) [1]) | ATG_CAR_TRANS (CAR (NR1I3) [2]) | ATG_FXR_TRANS (FXR (NR1H4) [4]) | ATG_PPARd_TRANS [3] | NVS_NR_hFXR (FXR (NR1H4) [5])

O=C(Nc1ccccc1-c1ccc(Cl)cc1)c1cccnc1Cl [r42]
0: NVS_NR_hCAR_Agonist (CAR (NR1I3) [1]) | ATG_CAR_TRANS (CAR (NR1I3) [2]) | ATG_PPARd_TRANS [3] | ATG_ERRa_TRANS [6]

Reference: paper PMC3038857, “Using Nuclear Receptor Activity to Stratify Hepatocarcinogens” (PLoS ONE, 2011)
